Calls of active or inactive are those of the source. The calls are words filed in the database; no cut-off is given here.
Assays:
Acinetobacter baumannii [1] = assay: Antibacterial activity against wild type Acinetobacter baumannii ATCC 17978 incubated for 18 hrs by CLSI protocol based assay; assay type: functional; details: ATCC 17978, 18 h
Pseudomonas aeruginosa [2] = assay: Synergistic antibacterial activity against wild type Pseudomonas aeruginosa PAO1 assessed as potentiation of doxycycline-induced antibacterial effect incubated for 18 hrs by checkerboard assay relative to doxycycline alone; assay type: functional
Acinetobacter baumannii [3] = assay: Antibacterial activity against novobiocin-resistant Acinetobacter baumannii ATCC 17978 mutant generated from seven serial passages by checkerboard assay; assay type: functional
Pseudomonas aeruginosa [4] = assay: Antibacterial activity against mexAB-oprM mutant deficient Pseudomonas aeruginosa PAO200 incubated for 18 hrs by CLSI protocol based assay; assay type: functional; details: PAO200, 18 h
Erythrocyte = assay: Hemolytic activity against porcine erythrocytes assessed as hemoglobin release at 1024 ug/ml incubated for 1 hr by microplate reader analysis; assay type: ADME, cell-based, Sus scrofa; details: pig
Klebsiella pneumoniae [5] = assay: Antibacterial activity against colistin-resistant Klebsiella pneumoniae 113250 clinical isolate incubated for 18 hrs by CLSI protocol based assay; assay type: functional; details: Klebsiella pneumoniae, 113250, 18 h
Escherichia coli [6] = assay: Potentiation of novobiocin-induced antibacterial activity against carbapenem-resistant Escherichia coli 107115 clinical isolate harboring mcr-1 gene assessed as novobiocin MIC at <= 7.1 uM incubated for 18 hrs by CLSI protocol based assay (reference value: 128 ug/ml); assay type: functional; details: Escherichia coli, 107115, 18 h
Pseudomonas aeruginosa [7] = assay: Potentiation of novobiocin-induced antibacterial activity against colistin and carbapenem-resistant Pseudomonas aeruginosa 101243 clinical isolate assessed as novobiocin MIC at <= 7.1 uM incubated for 18 hrs by CLSI protocol based assay (reference value: 128 ug/ml); assay type: functional; details: Pseudomonas aeruginosa, 101243, 18 h
Klebsiella pneumoniae [8] = assay: Bactericidal activity against Klebsiella pneumoniae 116381 assessed as log reduction in colony forming units per ml at 7.1 in LB media after 24 hrs by time-kill assay; assay type: functional
[9] = Toxicity in Galleria mellonella larvae assessed as survivability at 200 mg/kg measured every 6 hrs for 72 hrs; assay type: organism-based; details: in vivo
Acinetobacter baumannii [10] = assay: Potentiation of novobiocin-induced antibacterial activity against Acinetobacter baumannii 027 clinical isolate assessed as novobiocin MIC at <= 7.1 uM incubated for 18 hrs by CLSI protocol based assay (reference value: 8 ug/ml); assay type: functional; details: Acinetobacter baumannii, 027, 18 h
Acinetobacter baumannii [11] = assay: Antibacterial activity against Acinetobacter baumannii 031 clinical incubated for 18 hrs by CLSI protocol based assay; assay type: functional; details: Acinetobacter baumannii, 031, 18 h
Pseudomonas aeruginosa [12] = assay: Potentiation of novobiocin-induced antibacterial activity against carbapenem and colistin-resistant Pseudomonas aeruginosa 91433 clinical isolate assessed as novobiocin MIC at <= 7.1 uM incubated for 18 hrs by CLSI protocol based assay (reference value: 16 ug/ml); assay type: functional; details: Pseudomonas aeruginosa, 91433, 18 h
Pseudomonas aeruginosa [13] = assay: Antibacterial activity against Pseudomonas aeruginosa 259-96918 clinical isolate incubated for 18 hrs by CLSI protocol based assay; assay type: functional; details: 259-96918, 18 h
Pseudomonas aeruginosa [14] = assay: Antibacterial activity against mexAB-oprM/mexCD-oprJ/mexEF-oprN/mexJK/mexXY/opmH mutant deficient Pseudomonas aeruginosa PAO750 incubated for 18 hrs by CLSI protocol based assay; assay type: functional; details: PAO750, 18 h
Acinetobacter baumannii [15] = assay: Antibacterial activity against Acinetobacter baumannii LAC-4 clinical isolate incubated for 18 hrs by CLSI protocol based assay; assay type: functional; details: LAC-4, 18 h
Klebsiella pneumoniae [16] = assay: Antibacterial activity against colistin-resistant Klebsiella pneumoniae 113254 clinical isolate incubated for 18 hrs by CLSI protocol based assay; assay type: functional; details: Klebsiella pneumoniae, 113254, 18 h
Escherichia coli [17] = assay: Antibacterial activity against colistin-resistant Escherichia coli 94474 clinical isolate harboring mcr-1 gene incubated for 18 hrs by CLSI protocol based assay; assay type: functional; details: Escherichia coli, 94474, 18 h
Acinetobacter baumannii [18] = assay: Potentiation of novobiocin-induced antibacterial activity against wild type Acinetobacter baumannii ATCC 17978 assessed as novobiocin MIC at <= 7.1 uM incubated for 18 hrs by CLSI protocol based assay (reference value: 16 ug/ml); assay type: functional; details: ATCC 17978, 18 h
Pseudomonas aeruginosa [19] = assay: Synergistic antibacterial activity against wild type Pseudomonas aeruginosa PAO1 assessed as potentiation of aztreonam-induced antibacterial effect incubated for 18 hrs by checkerboard assay; assay type: functional, organism-based
Acinetobacter baumannii [20] = assay: Bactericidal activity against Acinetobacter baumannii ATCC 17978 assessed as log reduction in colony forming units per ml at 7.1 uM in LB media after 9 hrs in presence of 50.4 uM novobiocin by time-kill assay; assay type: functional
HEK293 = assay: Cytotoxicity against human HEK293 cells at 50 uM incubated for 48 hrs by PrestoBlue dye based fluorescence assay; assay type: cell-based; details: hek293, 48 h
Pseudomonas aeruginosa [21] = assay: Synergistic antibacterial activity against wild type Pseudomonas aeruginosa PAO1 assessed as potentiation of linezolid-induced antibacterial effect incubated for 18 hrs by checkerboard assay relative to linezolid alone; assay type: functional
Acinetobacter baumannii [22] = assay: Potentiation of novobiocin-induced antibacterial activity against Acinetobacter baumannii 027 clinical isolate assessed as fold reduction in novobiocin MIC incubated for 18 hrs by CLSI protocol based assay relative to novobiocin MIC; assay type: functional
Pseudomonas aeruginosa [23] = assay: Synergistic antibacterial activity against wild type Pseudomonas aeruginosa PAO1 assessed as potentiation of colistin-induced antibacterial effect at <=7.1 uM incubated for 18 hrs by checkerboard assay; assay type: functional, organism-based
Pseudomonas aeruginosa [24] = assay: Synergistic antibacterial activity against wild type Pseudomonas aeruginosa PAO1 assessed as potentiation of vancomycin-induced antibacterial effect at <=7.1 uM incubated for 18 hrs by checkerboard assay; assay type: functional, organism-based
Pseudomonas aeruginosa [25] = assay: Antibacterial activity against carbapenem-resistant Pseudomonas aeruginosa 101885 clinical isolate incubated for 18 hrs by CLSI protocol based assay; assay type: functional; details: Pseudomonas aeruginosa, 101885, 18 h
Escherichia coli [26] = assay: Bactericidal activity against Escherichia coli ATCC […] assessed as log reduction in colony forming units per ml at 7.1 uM in LB media after 9 hrs by time-kill assay; assay type: functional
Escherichia coli [27] = assay: Antibacterial activity against wild type Escherichia coli ATCC 25922 incubated for 18 hrs by CLSI protocol based assay; assay type: functional; details: ATCC 25922, 18 h
Acinetobacter baumannii [28] = assay: Potentiation of novobiocin-induced antibacterial activity against colistin-resistant Acinetobacter baumannii 92247 clinical isolate assessed as novobiocin MIC at <= 7.1 uM incubated for 18 hrs by CLSI protocol based assay (reference value: 4 ug/ml); assay type: functional; details: Acinetobacter baumannii, 92247, 18 h
Pseudomonas aeruginosa [29] = assay: Antibacterial activity against carbapenem and colistin-resistant Pseudomonas aeruginosa 91433 clinical isolate incubated for 18 hrs by CLSI protocol based assay; assay type: functional; details: Pseudomonas aeruginosa, 91433, 18 h
Klebsiella pneumoniae [30] = assay: Potentiation of novobiocin-induced antibacterial activity against colistin-resistant Klebsiella pneumoniae 113250 clinical isolate assessed as fold reduction in novobiocin MIC incubated for 18 hrs by CLSI protocol based assay relative to novobiocin MIC; assay type: functional
Enterobacter cloacae [31] = assay: Antibacterial activity against colistin-resistant Enterobacter cloacae 121187 clinical solate incubated for 18 hrs by CLSI protocol based assay; assay type: functional; details: Enterobacter cloacae, 121187, 18 h
Enterobacter cloacae [32] = assay: Potentiation of novobiocin-induced antibacterial activity against colistin-resistant Enterobacter cloacae 121187 clinical solate assessed as fold reduction in novobiocin MIC incubated for 18 hrs by CLSI protocol based assay relative to novobiocin MIC; assay type: functional
Pseudomonas aeruginosa [33] = assay: Antibacterial activity against carbapenem-resistant Pseudomonas aeruginosa 264-104354 clinical isolate incubated for 18 hrs by CLSI protocol based assay; assay type: functional; details: 264-104354, 18 h

SMILES: NC[C@H]1O[C@H](O[C@H]2[C@H](OCCCCc3cn(CCCCO[C@@H]4[C@@H](O[C@H]5O[C@H](CO)[C@@H](O)[C@H](N)[C@H]5O)[C@H](N)C[C@H](N)[C@H]4O[C@H]4O[C@H](CN)[C@@H](O)C[C@H]4N)nn3)[C@@H](O[C@H]3O[C@H](CO)[C@@H](O)[C@H](N)[C@H]3O)[C@H](N)C[C@@H]2N)[C@H](N)C[C@@H]1O.O=C(O)C(F)(F)F.O=C(O)C(F)(F)F.O=C(O)C(F)(F)F.O=C(O)C(F)(F)F.O=C(O)C(F)(F)F.O=C(O)C(F)(F)F.O=C(O)C(F)(F)F.O=C(O)C(F)(F)F.O=C(O)C(F)(F)F.O=C(O)C(F)(F)F
- MIC (Acinetobacter baumannii [1]): > 128 µg/mL
- fold change (FC) (Pseudomonas aeruginosa [2]): 4 - 128
- MIC (Acinetobacter baumannii [3]): 128 µg/mL
- MIC (Pseudomonas aeruginosa [4]): > 128 µg/mL
- Activity (Erythrocyte): Non-Toxic
- MIC (Klebsiella pneumoniae [5]): > 128 µg/mL
- MIC (Escherichia coli [6]): 8 µg/mL
- MIC (Pseudomonas aeruginosa [7]): 1 µg/mL
- Activity (Klebsiella pneumoniae [8]): -8.68 CFU/ml
- Activity [9]: Non-Toxic
- MIC (Acinetobacter baumannii [10]): 0.5 µg/mL
- MIC (Acinetobacter baumannii [11]): > 128 µg/mL
- MIC (Pseudomonas aeruginosa [12]): 1 µg/mL
- MIC (Pseudomonas aeruginosa [13]): > 128 µg/mL
- MIC (Pseudomonas aeruginosa [14]): > 128 µg/mL
- MIC (Acinetobacter baumannii [15]): > 128 µg/mL
- MIC (Klebsiella pneumoniae [16]): > 128 µg/mL
- MIC (Escherichia coli [17]): > 128 µg/mL
- MIC (Acinetobacter baumannii [18]): 0.5 µg/mL
- Activity (Pseudomonas aeruginosa [19]): Dose-dependent effect
- Activity (Acinetobacter baumannii [20]): -5 CFU/ml
- Activity (HEK293): Non-Toxic
- fold change (FC) (Pseudomonas aeruginosa [21]): 4 - 128
- Ratio (Acinetobacter baumannii [22]): 16
- Activity (Pseudomonas aeruginosa [23]): inactive
- Activity (Pseudomonas aeruginosa [24]): inactive
- MIC (Pseudomonas aeruginosa [25]): > 128 µg/mL
- Activity (Escherichia coli [26]): -2 CFU/ml
- MIC (Escherichia coli [27]): > 128 µg/mL
- MIC (Acinetobacter baumannii [28]): 0.25 µg/mL
- MIC (Pseudomonas aeruginosa [29]): > 128 µg/mL
- Ratio (Klebsiella pneumoniae [30]): 32
- MIC (Enterobacter cloacae [31]): > 128 µg/mL
- Ratio (Enterobacter cloacae [32]): 8
- MIC (Pseudomonas aeruginosa [33]): > 128 µg/mL

— ChEMBL document CHEMBL4376820, “Homodimeric Tobramycin Adjuvant Repurposes Novobiocin as an Effective Antibacterial Agent against Gram-Negative Bacteria” (J Med Chem, 2019)
